Measurements taken from PubChem BioAssay AID1259407 (Chemical Carcinogenesis Research Information System (CCRIS), 2018).
Activity calls are given as the source filed them. How the calls were made is not given here.

Tested on: CCRIS mutagenicity, Ames/micronucleus/aberration tests
Experiment: CCRIS mutagenicity studies

Cc1ccc(N)cc1N
mutagenic call (Test System: AMES SALMONELLA TYPHIMURIUM, Strain/Indicator: TA98, Metabolic Activation: RAT, LIVER, S-9, AROCLOR, Method: PREINCUBATION): active; positive
mutagenic call (Test System: AMES SALMONELLA TYPHIMURIUM, Strain/Indicator: TA98, Metabolic Activation: RAT, LIVER, S-9, PCB, Method: PREINCUBATION): active; positive
mutagenic call (Test System: AMES SALMONELLA TYPHIMURIUM, Strain/Indicator: TA98, Metabolic Activation: RAT, LIVER, S-9, PHENOBARBITAL AND 5,6-BENZOFLAVONE, Method: PREINCUBATION): active; positive
mutagenic call (Test System: AMES SALMONELLA TYPHIMURIUM, Strain/Indicator: TA98, Metabolic Activation: RAT, LIVER, S-9, PHENOBARBITAL AND 5,6-BENZOFLAVONE, Method: SUSPENSION/PLATE): active; positive
mutagenic call (Test System: AMES SALMONELLA TYPHIMURIUM, Strain/Indicator: TA100, Metabolic Activation: NONE, Method: MICROSUSPENSION): inactive; negative
mutagenic call (Test System: AMES SALMONELLA TYPHIMURIUM, Strain/Indicator: TA100, Metabolic Activation: NONE, Method: PREINCUBATION): inactive; negative
mutagenic call (Test System: AMES SALMONELLA TYPHIMURIUM, Strain/Indicator: TA100, Metabolic Activation: NONE, Method: SUSPENSION/PLATE): inactive; negative
mutagenic call (Test System: AMES SALMONELLA TYPHIMURIUM, Strain/Indicator: TA100, Metabolic Activation: RAT LIVER S-9, AROCLOR 1254, Method: MICROSUSPENSION): inactive; negative
mutagenic call (Test System: AMES SALMONELLA TYPHIMURIUM, Strain/Indicator: TA100, Metabolic Activation: RAT LIVER S-9, PHENOBARBITAL AND BETA-NAPHTHOFLAVONE, Method: PREINCUBATION): active; positive
mutagenic call (Test System: AMES SALMONELLA TYPHIMURIUM, Strain/Indicator: TA100, Metabolic Activation: RAT, LIVER, S-9, AROCLOR 1254, Method: STANDARD PLATE): active; positive
mutagenic call (Test System: AMES SALMONELLA TYPHIMURIUM, Strain/Indicator: TA100, Metabolic Activation: RAT, LIVER, S-9, PCB, Method: PREINCUBATION): active; positive
mutagenic call (Test System: AMES SALMONELLA TYPHIMURIUM, Strain/Indicator: TA100, Metabolic Activation: RAT, LIVER, S-9, PHENOBARBITAL AND 5,6-BENZOFLAVONE, Method: PREINCUBATION): active; positive
mutagenic call (Test System: AMES SALMONELLA TYPHIMURIUM, Strain/Indicator: TA100, Metabolic Activation: RAT, LIVER, S-9, PHENOBARBITAL AND 5,6-BENZOFLAVONE, Method: SUSPENSION/PLATE): active; positive
mutagenic call (Test System: AMES SALMONELLA TYPHIMURIUM, Strain/Indicator: TA1535, Metabolic Activation: NONE, Method: PREINCUBATION): inactive; negative
mutagenic call (Test System: AMES SALMONELLA TYPHIMURIUM, Strain/Indicator: TA1535, Metabolic Activation: RAT LIVER S-9, PHENOBARBITAL AND BETA-NAPHTHOFLAVONE, Method: PREINCUBATION): inactive; negative
mutagenic call (Test System: AMES SALMONELLA TYPHIMURIUM, Strain/Indicator: TA1537, Metabolic Activation: NONE, Method: PREINCUBATION): inactive; negative
mutagenic call (Test System: AMES SALMONELLA TYPHIMURIUM, Strain/Indicator: TA1537, Metabolic Activation: RAT LIVER S-9, PHENOBARBITAL AND BETA-NAPHTHOFLAVONE, Method: PREINCUBATION): active; positive
mutagenic call (Test System: AMES SALMONELLA TYPHIMURIUM, Strain/Indicator: TA1537, Metabolic Activation: RAT, LIVER, S-9, AROCLOR 1254 (4 OR 10%), Method: STANDARD PLATE): inactive; negative
mutagenic call (Test System: AMES SALMONELLA TYPHIMURIUM, Strain/Indicator: TA1538, Metabolic Activation: RAT, LIVER, S-9, AROCLOR 1254 (4 OR 10%), Method: STANDARD PLATE): active; positive
mutagenic call (Test System: AMES SALMONELLA TYPHIMURIUM, Strain/Indicator: TA1538, Metabolic Activation: RAT, LIVER, S-9, AROCLOR 1254, Method: STANDARD PLATE): active; positive
mutagenic call (Test System: AMES SALMONELLA TYPHIMURIUM, Strain/Indicator: YG1024, Metabolic Activation: PLANT CELLS, Method: PREINCUBATION): active; positive
mutagenic call (Test System: CHINESE HAMSTER V-79, Strain/Indicator: V-79/6-THIOGUANINE, Metabolic Activation: NONE, Method: SUSPENSION/PLATE): inactive; negative
mutagenic call (Test System: CHINESE HAMSTER V-79, Strain/Indicator: V-79/6-THIOGUANINE, Metabolic Activation: RAT, LIVER, S-9, PHENOBARBITAL AND BETA-NAPHTHOFLAVONE, Method: SUSPENSION/PLATE): inactive; negative
mutagenic call (Test System: E.COLI, Strain/Indicator: WP2UVRA, Metabolic Activation: NONE, Method: PREINCUBATION): inactive; negative
mutagenic call (Test System: E.COLI, Strain/Indicator: WP2UVRA, Metabolic Activation: RAT LIVER S-9, PHENOBARBITAL AND BETA-NAPHTHOFLAVONE, Method: PREINCUBATION): inactive; negative
mutagenic call (Test System: UDS HUMAN HEPATOMA HEPG2 CELLS, Strain/Indicator: THY INCORP, Metabolic Activation: NONE, Method: AUTORADIOGRAPHY): active; positive
mutagenic call (Test System: UDS RAT HEPATOCYTES, Strain/Indicator: BROMODEOXYURIDINE INCORP, Metabolic Activation: NONE, Method: FLOW CYTOMETRIC ANALYSIS): active; positive
mutagenic call (Test System: UDS RAT HEPATOCYTES, Strain/Indicator: THY INCORP, Metabolic Activation: NONE, Method: AUTORADIOGRAPHY): active; positive
